Four compounds from ChEMBL document CHEMBL1201862, “PubChem BioAssay data set” (2004) can be followed below.

Test systems include 786-0; BT-549; CAKI-1; DU-145; HCT-116; HOP-62; HT-29; MDA-MB-231; MDA-MB-435; MDA-N; Malme-3M; NCI-H460; NCI-H522; NCI/ADR-RES; OVCAR-8; RXF 393; SF-539; TK-10; UACC-62; UO-31.
Common to all, as to experiment: NCI-60 cell line screen, 48 h

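Step 1: Grow cells in 96-well plates. Step 2: Expose to compound for 48 hours at 5 concentrations. Step 3: Interpolate endpoints linearly; if unreached, use highest concentration. The concentration for 50% growth inhibition is given as GI50.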 The source made the active and inactive calls. No stated cut-off is given here; in the data, active = GI50 up to about 1.1 µM and inactive = higher.

In the case of `S=C(N/N=C/c1ccccn1)N1CC2CCC(CC2)C1`, the GI50 is < 0.01 µM (active) with 786-0; < 0.01 µM (active) with BT-549; < 0.01 µM (active) in the assay with CAKI-1; 0.0471 µM (active) in the assay on DU-145; < 0.01 µM (active) in the assay with HCT-116; < 0.01 µM (active) in the assay with HOP-62. The GI50 in the assay with HT-29 is < 0.01 µM (active); with MDA-MB-231, < 0.01 µM (active); in the assay on MDA-MB-435, 0.0404 µM (active); in the assay on MDA-N it was 0.0188 µM (active); with Malme-3M, < 0.047 µM (active); with NCI-H460, < 0.01 µM (active). Also, the GI50 in the assay on NCI-H522 was < 0.01 µM (active); with NCI/ADR-RES it was < 0.01 µM (active); with OVCAR-8, < 0.01 µM (active); with RXF 393, 0.0703 µM (active); with SF-539, < 0.0229 µM (active); in the assay on TK-10, < 0.01 µM (active). In addition, the GI50 is < 0.0365 µM (active) in the assay on UACC-62 and < 0.0111 µM (active) with UO-31.

On to `O=C(/C=C/c1ccccc1O)CC(=O)/C=C/c1ccccc1O`, for which the GI50 in the assay on 786-0 is 4.21 µM (inactive); in the assay on BT-549 it was 5.62 µM (inactive); in the assay on CAKI-1 it was 17.9 µM (inactive); with DU-145 it was 14.5 µM (inactive); with HCT-116, 2.38 µM (inactive); in the assay on HOP-62, 11.8 µM (inactive). Moreover, the GI50 in the assay with HT-29 is 1.84 µM (inactive); in the assay with MDA-MB-231 it was > 10 µM (inactive); in the assay with MDA-MB-435, 4.38 µM (inactive); in the assay with MDA-N, 2.97 µM (inactive); in the assay with Malme-3M, 11.7 µM (inactive); with NCI-H460, 7.45 µM (inactive). For the same compound, the GI50 is 3.72 µM (inactive) with NCI-H522; 5.01 µM (inactive) in the assay on NCI/ADR-RES; 4.41 µM (inactive) with OVCAR-8; 3.25 µM (inactive) in the assay with RXF 393; 5.9 µM (inactive) in the assay on SF-539; 23.7 µM (inactive) in the assay on TK-10. Besides, the GI50 is 4.93 µM (inactive) in the assay on UACC-62 and 4.73 µM (inactive) in the assay with UO-31.

For the compound `O=c1[nH]/c(=C/c2cccs2)c(=O)[nH]/c1=C/c1ccc(OCc2ccccc2)cn1`, the GI50 with 786-0 was 0.061 µM (active); with BT-549, 0.0239 µM (active); in the assay on CAKI-1, 0.0312 µM (active); in the assay on DU-145, 0.0716 µM (active); in the assay on HCT-116, 0.0494 µM (active); in the assay on HOP-62 it was 0.033 µM (active). For the same compound, the GI50 was 0.124 µM (active) in the assay with HT-29; 0.219 µM (active) in the assay with MDA-MB-231; < 0.01 µM (active) in the assay on MDA-MB-435; 0.0164 µM (active) in the assay with MDA-N; 0.0197 µM (active) in the assay with Malme-3M; 0.0351 µM (active) with NCI-H460. For the same compound, the GI50 in the assay with NCI-H522 was 0.0171 µM (active); with NCI/ADR-RES it was 0.0266 µM (active); in the assay on OVCAR-8 it was 0.197 µM (active); in the assay on RXF 393, 0.0506 µM (active); with SF-539, 0.123 µM (active); in the assay on TK-10 it was 1.74 µM (inactive). Further, the figures for the GI50 in the assay on UACC-62 and in the assay with UO-31 were 0.0638 µM (active) and 0.0207 µM (active), respectively.

In the case of `COc1cc(/N=C(\N)N=C(N)N)c2ncccc2c1`, the GI50 in the assay with 786-0 is 64.6 µM (inactive); in the assay on BT-549, 78.5 µM (inactive); in the assay with CAKI-1, > 100 µM (inactive); in the assay with DU-145, > 100 µM (inactive); in the assay on HCT-116, > 100 µM (inactive); in the assay on HOP-62, > 100 µM (inactive). Moreover, the GI50 with HT-29 was > 100 µM (inactive); with MDA-MB-231 it was > 100 µM (inactive); in the assay with MDA-MB-435, > 100 µM (inactive); in the assay with MDA-N, > 100 µM (inactive); in the assay on Malme-3M, 44.7 µM (inactive); with NCI-H460 it was > 100 µM (inactive). For the same compound, the GI50 with NCI-H522 was 72.8 µM (inactive); in the assay with NCI/ADR-RES, > 100 µM (inactive); in the assay with OVCAR-8, > 100 µM (inactive); with RXF 393 it was > 100 µM (inactive); in the assay on SF-539, 46.8 µM (inactive); with TK-10 it was > 100 µM (inactive). Also, the GI50 in the assay with UACC-62 and in the assay on UO-31 was > 100 µM (inactive) each time.
